Target: IN-GCN2 interaction (6xHis-IN / GST-GCN2) (UniProt P04585+Q9P2K8)
Assay: biochemical
Type: binding, HIV-1 IN; human GCN2
Conditions: for IN-GCN2 interaction (%): screen, single dose 100 µM, single replicate, residual AlphaLISA signal normalized to DMSO control

IN-GCN2 interaction (6xHis-IN / GST-GCN2), sequence (Q9P2K8 192-1024, other chains not shown): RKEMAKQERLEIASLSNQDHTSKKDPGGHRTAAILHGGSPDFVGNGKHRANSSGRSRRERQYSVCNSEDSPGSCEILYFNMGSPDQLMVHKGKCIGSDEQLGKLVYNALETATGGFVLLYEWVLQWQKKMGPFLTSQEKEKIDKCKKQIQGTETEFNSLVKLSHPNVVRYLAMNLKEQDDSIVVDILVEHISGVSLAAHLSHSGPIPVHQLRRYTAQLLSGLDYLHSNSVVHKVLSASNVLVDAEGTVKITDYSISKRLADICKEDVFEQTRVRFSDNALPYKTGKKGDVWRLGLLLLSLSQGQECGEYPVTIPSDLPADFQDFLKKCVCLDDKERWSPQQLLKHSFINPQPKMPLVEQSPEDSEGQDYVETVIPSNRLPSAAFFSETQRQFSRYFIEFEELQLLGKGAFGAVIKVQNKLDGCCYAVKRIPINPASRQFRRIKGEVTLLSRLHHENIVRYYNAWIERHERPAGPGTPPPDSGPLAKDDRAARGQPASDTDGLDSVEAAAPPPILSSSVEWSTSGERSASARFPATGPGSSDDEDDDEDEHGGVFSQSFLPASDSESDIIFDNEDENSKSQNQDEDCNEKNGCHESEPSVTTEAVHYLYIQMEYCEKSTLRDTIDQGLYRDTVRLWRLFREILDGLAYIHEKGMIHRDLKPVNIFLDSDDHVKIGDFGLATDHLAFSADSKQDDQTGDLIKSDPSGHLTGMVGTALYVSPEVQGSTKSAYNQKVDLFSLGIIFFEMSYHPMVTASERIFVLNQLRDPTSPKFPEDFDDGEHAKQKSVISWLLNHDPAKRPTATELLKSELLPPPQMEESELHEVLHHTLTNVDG

Row | SMILES | IN-GCN2 interaction (%) | also measured
1 | CC[C@]12CCCN3CC[C@]4(C(=C(C(=O)OC)C1)Nc1ccccc14)[C@@H]32 [NSC785180] | 67.39% | –
2 | C[C@H]1CO[C@H]2C3=C(C(=O)C=CC3=O)[C@@H]3OC(=O)[C@H]4CC[C@@H]5[C@H]1CC[C@@]52[C@@H]43 [NSC401005] | 52.24% | –
3 | COc1cc2c3c(c1O)-c1ccccc1CC3N(C)CC2 (stereo not drawn) [NSC785177] | 73.43% | –
4 | CC[C@](C)(O)C(=O)O[C@H]1C(=O)O[C@@H]2C[C@H]3C(C)=C[C@H](O)[C@@H](O)[C@]3(C)[C@H]3[C@]4(O)OC[C@]32[C@@H]1[C@@H](C)[C@H]4O [NSC14975] | 117.58% | –
5 | COc1c(OC)c2c3c(nccc3c1OC)C(=O)c1cc(O)ccc1-2 [NSC785143] | 30.28% | –
6 | C=C1C(=O)O[C@@H]2[C@H]1CC[C@H](C)[C@]1(O)C=CC(=O)[C@@]21C [NSC85239] | 120.23% | –
7 | C=C(NC(=O)C(=C)NC(=O)c1csc(C2=NC3c4csc(n4)C4NC(=O)c5csc(n5)C(C(C)(O)C(C)O)NC(=O)C5CSC(=N5)/C(=C\C)NC(=O)C(C(C)O)NC(=O)c5csc(n5)C3(CC2)NC(=O)C(C)NC(=O)C(=C)NC(=O)C(C)NC(=O)C(C(C)CC)NC2C=Cc3c(C(C)O)cc(nc3C2O)C(=O)OC4C)n1)C(N)=O (stereo not drawn) [NSC170365] | 53.53% | –
8 | O=C1C[C@@H]2OCC=C3C[N+]4([O-])CC[C@]56c7ccccc7N1[C@H]5[C@H]2[C@H]3C[C@@H]64 (stereo partly drawn) [NSC24951] | 106.44% | –
9 | COc1cc2c(c(OC)c1OC)-c1ccc(OC)c(=O)cc1[C@@H](NC(C)=O)CC2 [NSC757] | 116.47% | –
10 | COc1cc2c(cc1O)C[C@H]1c3c(cc(OC)c(OC)c3-2)CCN1C [NSC785189] | 31.39% | –
11 | C[N+]1(C)C2CC(OC(=O)C(CO)c3ccccc3)CC1C1OC12 (stereo not drawn) [NSC61809] | 93.88% | –
12 | O=C1CC(c2ccccc2)Oc2ccccc21 (stereo not drawn) [NSC50393] | 103.95% | –
13 | CC[C@H](C)c1occ2c(O)c(C(=O)O)c(=O)cc-2c1C [NSC114344] | 113.54% | –
14 | COc1ccc(CC2=NCCc3cc(OC)c(OC)cc32)cc1OC.O=C(O)C(=O)O [NSC35550] | 110.36% | –
15 | COc1cc2c(cc1OC)CN1CCc3cc(OC)c(OC)cc3C1C2 (stereo not drawn) [NSC10105] | 96.86% | –
16 | Br.CN1CCc2cc3c(cc2C1)OCO3 [NSC121859] | 114.20% | –
17 | COc1cc2oc3cc(=O)cc4oc(-c5ccccc5)cc(c2c2c1CCC(c1ccccc1)O2)c43 (stereo not drawn) [NSC376248] | 71.04% | –
18 | CC1=C(O)C(=O)C(C2=C(O)C(=O)C(C)=C(O)C2=O)=C(O)C1=O [NSC88466] | 52.93% | –
19 | C=C1[C@@H](C)[C@H]2[C@H](Cc3ccccc3)NC(=O)C23[C@H](OC(C)=O)/C=C/[C@@](C)(O)C[C@@H](C)C/C=C/[C@H]3[C@@H]1O (stereo partly drawn) [NSC305222] | 109.95% | –
20 | C[C@]12CC[C@H](O)C[C@H]1CC[C@@H]1[C@@H]2CC[C@]2(C)[C@@H](C3=CC(=O)OC3)CC[C@]12O [NSC407806] | 101.32% | –

Row | SMILES | IN-GCN2 interaction (%) | also measured
21 | O=C1C=C[C@H](O)[C@@]2(CO)O[C@@H]12 [NSC266032] | 108.08% | –
22 | C/C=C\C(C)=C\[C@H](C)C(=O)C[C@H](O)CC1CC(=O)NC(=O)C1 [NSC248958] | 116.00% | –
23 | COc1cc2c(c(O)c1OC)C[C@H]1c3c(c(OC)c4c(c3-2)OCO4)CCN1C [NSC785163] | 34.56% | –
24 | CC1=CC(O)C(O)C2(C)C1CC1OC(=O)C(O)C3C(C)C(O)C4(O)OCC13C42 (stereo not drawn) [NSC14974] | 90.88% | –
25 | COC(=O)[C@@]12OC[C@]34[C@H]([C@@H](O)[C@@H]1O)[C@@]1(C)CC(=O)C(O)=C(C)[C@@H]1C[C@H]3OC(=O)[C@H](OC(=O)/C=C(\C)C(C)C)[C@@H]24 [NSC165563] | 97.95% | –
26 | N#C[C@H](O[C@@H]1O[C@H](CO[C@@H]2O[C@H](CO)[C@@H](O)[C@H](O)[C@H]2O)[C@@H](O)[C@H](O)[C@H]1O)c1ccccc1 [NSC15780] | 121.81% | –
27 | NCCOC[C@H](N)C(=O)O [NSC136035] | 90.45% | –
28 | COc1cc2c3c(c1O)C1(C=CC(=O)C=C1)C[C@@H]3N(C)CC2 [NSC785166] | 94.62% | –
29 | Cl.NC(=O)c1cn(C2OC(CO)C(O)C2O)c2ncnc(N)c12 (stereo not drawn) [NSC143648] | 113.09% | –
30 | CC1(C)C(=O)N2c3ccccc3C3(CC(N4C(=O)c5ccccc5C4=O)C(=O)O3)C2N1C(=O)OCc1ccccc1 (stereo not drawn) [NSC382796] | 53.34% | –
31 | C=C1C(=O)O[C@@H]2[C@H]1CC[C@H](C)[C@@H]1C=CC(=O)[C@@]21C [NSC85235] | 40.36% | –
32 | COc1c2c(c(CC=C(C)C)c3oc(=O)c(-c4ccc(O)cc4)c(O)c13)OC(C)(C)C=C2 [NSC307981] | 101.87% | –
33 | C[C@@H](N)C(=O)NC(CO)C(O)C(N)C=O.Cl (stereo partly drawn) [NSC278619] | 77.59% | –
34 | O=C(O)c1ccc(O)c(O)c1 [NSC16631] | 69.74% | –
35 | CC(=O)CCC(=O)O [NSC3716] | 123.74% | –
36 | O=P(O)(O)OC1OC(CO)C(O)C(O)C1O (stereo not drawn) [NSC44138] | 105.48% | –
37 | CC(=O)C(=O)N[C@@H]1/C=C(C)/C=C/[C@@H](O)C/C=C(C)/C=C/[C@@H](O)C[C@H]2OC(=O)[C@]1(C)C(=O)[C@@H]2C [NSC145118] | 98.66% | –
38 | CC(=O)CCCCn1c(=O)c2c(ncn2C)n(C)c1=O [NSC637086] | 87.24% | –
39 | COc1cc2c(c(OC)c1OC)-c1ccc(SC)c(=O)cc1[C@@H](NC(=O)C(F)(F)F)CC2 [NSC320301] | 97.92% | –
40 | CO[C@@H]1C[C@](C)(O)Cc2cc3c(c(O)c21)C(=O)c1c(O)cc2c(c1C3=O)O[C@@H]1O[C@@]2(C)[C@H](O)[C@@H](N(C)C)[C@@H]1O [NSC269148] | 113.29% | –

Row | SMILES | IN-GCN2 interaction (%) | also measured
41 | CC(=O)O[C@H]1C[C@H](O[C@H]2[C@@H](O)C[C@H](O[C@H]3[C@@H](O)C[C@H](O[C@H]4CC[C@@]5(C)[C@H](CC[C@@H]6[C@@H]5C[C@@H](O)[C@]5(C)[C@@H](C7=CC(=O)OC7)CC[C@]65O)C4)O[C@@H]3C)O[C@@H]2C)O[C@H](C)[C@H]1O[C@@H]1O[C@H](CO)[C@@H](O)[C@H](O)[C@H]1O [NSC7533] | 107.72% | –
42 | COC1=C[C@@H]2[C@@H]3Cc4ccc(OC)c(O)c4[C@]2(CCN3C)CC1=O [NSC785175] | 87.66% | –
43 | Nc1ncnc2c1ncn2[C@@H]1O[C@H](CO)[C@@H](O)[C@H]1O [NSC7652] | 51.17% | –
44 | COC(=O)[C@H]1[C@H]2C[C@@H]3c4[nH]c5ccccc5c4CCN3C[C@H]2C[C@@H](OC(=O)c2cc(OC)c(OC)c(OC)c2)[C@@H]1OC [NSC72138] | 30.11% | –
45 | CCC/C=C/C=C/C(=O)O[C@H]1/C(=C/C(=O)OC)C[C@H]2C[C@H]([C@@H](C)O)OC(=O)C[C@H](O)C[C@@H]3C[C@H](OC(C)=O)C(C)(C)[C@](O)(C[C@@H]4C/C(=C/C(=O)OC)C[C@H](/C=C/C(C)(C)[C@]1(O)O2)O4)O3 [NSC339555] | 32.23% | –
46 | CC[C@@]1(O)C(=O)OCc2c1cc1n(c2=O)Cc2cc3ccccc3nc2-1 [NSC94600] | – | IN-GCN2 interaction (%) (listed as 94600): 48.96%
47 | C[C@@H]1C[C@H](C)C[C@H](C)[C@@H](O)CC(=O)O[C@H]([C@@H]2CCC[C@H]2C(=O)O)C/C=C/C=C(/C#N)[C@H](O)[C@@H](C)C1 [NSC216128] | 89.16% | –
48 | C[C@H]1O[C@@H](c2ccc3c(c2O)C(=O)C2=C(C3=O)[C@@]3(O)C(=O)C[C@](C)(O)C[C@@]3(O)C=C2)C[C@@H](O)[C@@H]1O [NSC184398] | 10.15% | –
49 | COc1c(O)ccc2c1-c1c3c(cc4c1[C@H](C2)N(C)CC4)OCO3 [NSC785182] | – | IN-GCN2 interaction (%) (listed as 785182): 74.81%
50 | COc1cc([C@@H]2c3cc4c(c(O)c3C[C@H]3COC(=O)[C@@H]32)OCO4)cc(OC)c1OC [NSC24819] | 89.45% | –
51 | COc1cc2c(cc1OC)C(O)C(O)(CO)C(C(=O)O)C2c1cc(OC)c(OC)c(OC)c1 (stereo not drawn) [NSC50131] | 78.06% | –
52 | COc1cc2c(cc1OC)C(=O)Cc1ccc3c(c1CN(C)CC2)OCO3 [NSC32984] | 91.01% | –
53 | CCC(C)(O)c1cnc(CC(C)C)c(=O)n1O (stereo not drawn) [NSC127445] | 137.47% | –
54 | CC(=O)O[C@H]1C[C@H](O[C@H]2[C@@H](O)C[C@H](O[C@H]3[C@@H](O)C[C@H](O[C@H]4CC[C@@]5(C)[C@H](CC[C@@H]6[C@@H]5CC[C@]5(C)[C@@H](C7=CC(=O)OC7)CC[C@]65O)C4)O[C@@H]3C)O[C@@H]2C)O[C@H](C)[C@H]1O[C@@H]1O[C@H](CO)[C@@H](O)[C@H](O)[C@H]1O [NSC7532] | 117.74% | –
55 | COc1c(O)ccc2c1-c1c3c(cc4c1[C@H](C2)NCC4)OCO3 [NSC785148] | 69.85% | –
56 | CCC1(O)CC(OC2CC(N(C)C)C(OC3CC(O)C(OC4CC(O)C(O)C(C)O4)C(C)O3)C(C)O2)c2c(cc3c(c2O)C(=O)c2c(O)ccc(O)c2C3=O)C1C(=O)OC (stereo not drawn) [NSC265211] | 39.6% | IC50 (IC50, inhibition of IN-GCN2 interaction, SAR study, fresh dilutions from powder, at least three independent experiments): > 100 µM; inhibition at 100 µM (read-out: inhibition of IN-GCN2 interaction): ~60%; IN-GCN2 interaction (%) (listed as 265211): 39.59%
57 | COc1cc2cc(c1Cl)N(C)C(=O)C[C@H](OC(=O)C(C)C)[C@]1(C)O[C@H]1[C@H](C)[C@@H]1C[C@@](O)(NC(=O)O1)[C@H](OC)/C=C/C=C(\C)C2 [NSC292222] | 93.28% | –
58 | COc1c2occc2c(OC)c2c(=O)cc(C)oc12 [NSC8519] | 129.74% | –
59 | COc1cc2c(cc1OC)[C@@H](Cc1ccc(O)cc1)N(C)CC2 [NSC785172] | 91.61% | –
60 | CN1CC(=O)NC1=N [NSC13123] | 106.95% | –

From publication PMC12390684 (Viruses, 2025)
